# Data published in PMC6816246, “A Novel Substrate Radiotracer for Molecular Imaging of SIRT2 Expression and Activity with Positron Emission Tomography” (Molecular imaging and biology, 2018).
# Target: T1, SIRT2 (Homo sapiens, UniProt Q8IXJ6)
# T1 sequence (Q8IXJ6 2-389): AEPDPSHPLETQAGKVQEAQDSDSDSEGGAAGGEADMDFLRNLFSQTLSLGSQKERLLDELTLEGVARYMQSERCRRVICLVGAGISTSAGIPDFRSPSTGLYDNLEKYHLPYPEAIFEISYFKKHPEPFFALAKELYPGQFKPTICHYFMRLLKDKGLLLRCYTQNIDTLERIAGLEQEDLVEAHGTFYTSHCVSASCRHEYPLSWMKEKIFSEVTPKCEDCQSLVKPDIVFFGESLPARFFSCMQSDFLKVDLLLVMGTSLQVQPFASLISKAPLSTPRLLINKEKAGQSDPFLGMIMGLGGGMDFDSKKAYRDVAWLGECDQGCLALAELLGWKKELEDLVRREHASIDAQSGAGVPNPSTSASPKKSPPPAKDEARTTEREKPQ
# Assay: fluorogenic enzyme kinetics with recombinant SIRT2 (Km)
# Format: biochemical
row,Km,Substance
1,8.07 µM,Boc-Lys(12-F-dodecanoyl)-AMC [compound 4]
2,2.36 µM,Boc-Lys(myristoyl)-AMC [compound 5]

# More lines, now with the values behind:
row,Substance,Km
1,Boc-Lys(3-F-propanoyl)-AMC [compound 1],55.5 µM
2,Boc-Lys(6-F-hexanoyl)-AMC [compound 2],44.9 µM
3,Boc-Lys(10-F-decanoyl)-AMC [compound 3],18 µM
